Test results reported in publication PMC9019904, “AD Informer Set: Chemical tools to facilitate Alzheimer's disease drug discovery” (Alzheimer's & Dementia : Translational Research & Clinical …, 2022).

How the values were obtained:
[1] = test system: HMC3 (human microglia) cell line; test: pHrodo-myelin phagocytosis/cell viability high content imaging assay: viability (cell count, nuclear area, nuclear intensity); details: 48 hours treatment
In short: (§1)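 Duplicate single-point screen at 10 μM over 48 h, combined with pHrodo-myelin phagocytosis during the last 20 h. Cytotoxicity is taken from imaged cell counts and nuclear intensity changes, normalized to untreated wells as % control.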

[2] = test system: BV2 (mouse microglia) cell line; test: as above; details: 48 hours treatment
In short: as §1

[3] = test system: HMC3 (human microglia) cell line; test: pHrodo-myelin phagocytosis/cell viability high content imaging assay: phagocytosis signal; type: cell-based
In short: (§2)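 Imaging at high content captured pHrodo-myelin uptake about 22 hours after its addition, alongside a viability read-out from the same cells. Three measurements were derived, with intensity increase marking early apoptosis and decrease marking later apoptosis.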

[4] = test system: BV2 (mouse microglia) cell line; test: as above; type: cell-based
In short: as §2

[5] = HMC3, compound 10 uM, pHrodo-myelin
[6] = BV2, compound 10 uM, pHrodo-myelin
[7] = HMC3 cells, 10 uM compound, 48 hours treatment, pHrodo-myelin final 20 hours
[8] = BV2 cells, 10 uM compound, 48 hours treatment, pHrodo-myelin final 20 hours

| SMILES | 1. Cell count (% control) ([1]; HMC3, compound 10 uM) | 2. Nuclear Area (% Control) ([1]; HMC3, compound 10 uM) | 3. Nuclear DNA Intensity (% control) ([1]; HMC3, compound 10 uM) | 1. Cell count (% control) ([2]; BV2, compound 10 uM) | 2. Nuclear Area (% Control) ([2]; BV2, compound 10 uM) | 3. Nuclear DNA Intensity (% control) ([2]; BV2, compound 10 uM) | 4. Phagocytosis (% control) [3, 5] [% control] | 4. Phagocytosis (% control) [4, 6] [% control] | 1. Cell count (% control) ([1]; HMC3 cells, 10 uM compound) | 2. Nuclear Area (% Control) ([1]; HMC3 cells, 10 uM compound) | 3. Nuclear DNA Intensity (% control) ([1]; HMC3 cells, 10 uM compound) | 1. Cell count (% control) ([2]; BV2 cells, 10 uM compound) | 2. Nuclear Area (% Control) ([2]; BV2 cells, 10 uM compound) | 3. Nuclear DNA Intensity (% control) ([2]; BV2 cells, 10 uM compound) | 4. Phagocytosis (% control) [3, 7] [% control] | 4. Phagocytosis (% control) [4, 8] [% control] |
| --- | --- | --- | --- | --- | --- | --- | --- | --- | --- | --- | --- | --- | --- | --- | --- | --- |
| COc1ccc(CCCN2CCC(COC(c3ccccc3)c3ccccc3)CC2)cc1 [UNC10303165A] | 110.9 | 113.8 | 93.8 | 87.4 | 108.5 | 107.0 | 43.5 | 176.2 |  |  |  |  |  |  |  |  |
| CCOC(=O)N1CCC(Nc2c(NCCN3CCN(c4cccc(C(F)(F)F)c4)CC3)c(=O)c2=O)CC1 [UNC10302706A] | 111.8 | 102.2 | 96.9 | 117.8 | 102.0 | 95.9 | 75.0 | 143.2 |  |  |  |  |  |  |  |  |
| CC(C)Nc1cc(-c2c[nH]c(C(=O)N[C@H](CO)c3cccc(Cl)c3)c2)c(Cl)cn1 [UNC10302869A] |  |  |  |  |  |  |  |  | 116.3 | 105.5 | 89.1 | 44.0 | 125.5 | 96.6 | 59.0 | 222.2 |
| Cc1cc(C)nc(NC(=S)N2CCN(c3ccc(C(F)(F)F)cn3)CC2)c1 [UNC10302906A] |  |  |  |  |  |  |  |  | 134.6 | 95.0 | 106.3 | 93.3 | 107.2 | 105.6 | 109.8 | 184.1 |
| Br.CCCc1cc(-c2nc(-c3ccc(C)cc3)cs2)ccn1 [UNC10302889A] |  |  |  |  |  |  |  |  | 81.4 | 79.1 | 141.7 | 52.9 | 97.6 | 117.7 | 101.1 | 198.0 |
| Cc1cc(OCc2nnc(SC3CCCC3)n2-c2cccnc2)ccc1-c1ccc(S(C)(=O)=O)cc1 [UNC10302838A] | 58.3 | 51.1 | 240.9 | 15.0 | 98.1 | 45.6 | 33.5 | 0.0 |  |  |  |  |  |  |  |  |
| COc1ccc2nc([S+]([O-])Cc3ncc(C)c(OC)c3C)nc-2[nH]1 (stereo not drawn) [UNC10303106A] |  |  |  |  |  |  |  |  | 100.3 | 105.8 | 97.2 | 113.2 | 104.8 | 103.4 | 91.6 | 116.6 |
| CC(=O)NCC(=O)N1[C@@H]2CC[C@H]1c1ccc(Nc3ncc(C(F)(F)F)c(NC4CCC4)n3)cc12 [UNC10302896A] |  |  |  |  |  |  |  |  | 69.3 | 158.3 | 82.5 | 18.3 | 110.7 | 18.8 | 16.0 | 0.15 |
| O=c1[nH]c2ccccc2n1C1CCN(CCCC(c2ccc(F)cc2)c2ccc(F)cc2)CC1 [UNC10101002A] | 97.6 | 104.3 | 96.0 | 77.1 | 99.5 | 98.4 | 140.6 | 134.9 |  |  |  |  |  |  |  |  |
| CC(C)(C)c1cnc(CSc2cnc(NC(=O)C3CCNCC3)s2)o1 [UNC10302585A] |  |  |  |  |  |  |  |  | 57.0 | 118.9 | 102.8 | 5.4 | 123.4 | 85.3 | 156.3 | 98.5 |
| O=C1CCc2cc(OCCCCc3nnnn3C3CCCCC3)ccc2N1 [UNC10100278A] |  |  |  |  |  |  |  |  | 103.2 | 103.0 | 97.0 | 112.3 | 103.2 | 104.4 | 104.4 | 125.3 |
| O=C1C=C(NCCc2cc(Br)c(O)c(Br)c2)C(=O)c2ncccc21 [UNC10303225A] | 62.3 | 83.0 | 132.4 | 8.3 | 122.7 | 97.1 | 54.3 | 163.7 |  |  |  |  |  |  |  |  |
